Measurements taken from US11850449B2, “Irradiation method and system” (priority 2017, dated 2023).
Where two headings read alike, the source gives them in different places.

How the values were obtained:
[1] = tested on: T98G (JCRB9041, human glioblastoma multiforme) cell lines; assay: Example 3 T98G cell proliferation (Resazurin/alamarBlue) after carbon or helium ion beam irradiation with neutron capture agents; type: cell-based; conditions: 500 μM; for Cell proliferation: 24 h incubation prior to irradiation, up to 168 hours, vs flasks without compound; for radiosensitisation: carbon and helium ion beams
Description: The approach of the aforementioned embodiments was tested experimentally. A series of proof-of concept experiments were performed at Japan's HIMAC facility, to quantify the effective increase in biological dose which can be achieved in vitro. Cultured T98-G cancer cells adhered to the inner surface of T25 cell culture flasks were irradiated in carbon and helium ion beams, with and without the presence of realistic concentrations of neutron capture agents.
Three frozen vials of T98G (JCRB9041, human glioblastoma multiforme) cell lines were purchased from the National Institutes of Biomedical Innovation, Health and Nutrition, JCRB Cell Bank and used throughout the experiments.
Prior to the start of the experiments, the cells were revived and passaged twice prior to seeding 160 T25 flasks, with 5 mL of complete growth medium (DMEM+10% FBS). Flasks were incubated at 37±1° C. in an atmosphere of 5±1% CO2.
The experiments utilised ^12C and ^4He beams with 60 mm Spread Out Bragg Peak (SOBP60) spectra, and an approximate dose rate of 1 Gy/min. Cell viability was measured as a function of ion beam dose in cultured T98-G human glioblastoma cells, with and without the presence of two neutron capture agents, ^10B enriched 4-borono-L-phenylalanine (^10B-BPA) and 2,2′,2″-(10-(4-(((triphenylphosphonio)methyl)benzyl)-1,4,7,10-tetraazacyclododecane-1,4,7-triyl)triacetatogadolinium(III) trifluoroacetate (157Gd-DOTA-TPP salt complex).
A set of 300×300×10 mm^3 PMMA slabs were used in conjunction with a PMMA receptacle for holding two flasks. With this arrangement, the flasks containing the cell cultures were positioned inside a cubic 300×300×300 mm^3 PMMA phantom in a plane normal to the incident beam, at a depth corresponding to the midpoint of the SOBP60 as illustrated schematically in FIG. 13. The neutron fluence predicted via Monte Carlo simulation in Example 2 is overlayed on this figure for illustrative purposes. The ion beams were ^12C and ^4He beams with dimensions of 100×100 mm^2 (width×height) and SOBP60 energy spectra with mean energies of 290 MeV/u and 150 MeV/u, respectively (corresponding to SOBP depth ranges of approximately 8 to 14 cm in PMMA).
The irradiation campaign was conducted on four consecutive nights (carbon ion beam irradiations were conducted on the first and third nights, while helium ion beam irradiations were performed on the second and fourth night) at the HIMAC biological beamline. Forty flasks were irradiated during each night, at 80% to 90% confluence (corresponding to ˜3.75×10^5 cells per flask). Twenty-four hours prior to each irradiation, 10 flasks were incubated with 500 μM of ^10B-BPA, while a second set of 10 flasks were incubated with 500 μM of ^157Gd-DOTA-TPP salt complex. The remaining 20 flasks were used as control.
On the night of irradiation, the beam was calibrated for dose rate and dose-depth deposition and the dose-rate at the centre of the Bragg peak (corresponding to the location of the cells) was measured with an ionisation chamber. Immediately prior to irradiation, flasks were filled with a complete DMEM media (˜30 mL per flask). Flasks were irradiated in pairs, with flasks containing the neutron capture agents irradiated together, followed by corresponding control flasks (containing no neutron capture agent). Ten different dose values were used with each ion beam: 0, 0.9, 1.8, 2.3, 2.7, 3.2, 3.6, 4.1, 4.6, and 7.3 Gy for helium, and 0, 0.6, 1.3, 1.6, 1.9, 2.2, 2.5, 2.8, 3.1 and 5 Gy for carbon.
After irradiation, the medium was aseptically removed from the irradiated flasks. Cells were washed with 5 mL of DPBS which was removed and discarded. Cells were then trypsinised, detached from the flasks and resuspended in completed growth medium. Cell count and viability was recorded.
Sixteen 96-well plates were populated each night, each well containing approximately 375 cells, and each set of three wells corresponding to one flask. […]

brain tumour cells = brain tumour cells / brain tumours; reported; cited from earlier work
normal tissues = conditions: reported; cited from earlier work
liver tumours = conditions: reported [26, 27, 39]; cited from earlier work
liver = conditions: normal liver; reported [26, 27, 39]; cited from earlier work
[2] = value used in Example 2 dose relation; cited from earlier work
[3] = in vivo, cited from earlier work
[4] = in vivo; cited from earlier work
GBM (in vitro) = conditions: cited from earlier work
[5] = Example 2 Monte Carlo simulation and treatment plan, neutron capture dose enhancement in PMMA target; conditions: based on photon activated therapy studies with the same agent, corrected for expected Auger electron production
Description: In a further example, a similar set of simulations was conducted. Significance was arbitrarily defined as an average 10% increase in photon-equivalent dose within a tumour resulting from the administration of a non-toxic bolus of neutron-capture agent (though it is envisaged that the method of this embodiment can be used with any desired dose increase factor). To do so, the concentration of neutron capture agent required to provide a 10% increase in effective photon-equivalent dose is determined for a simple simulated therapeutic proton/heavy ion treatment plan, and this is compared with concentrations reported in the literature.
The first step is to evaluate the neutron fluence resulting from pencil-beam irradiation of a point within a target volume. […] Dose and neutron fluence distributions were recorded for each simulation; corresponding distributions at energies in between these were also estimated by interpolating between the distributions obtained at these energies. […] The primary particle fluence at each energy was then weighted such that an approximately flat biological effective dose (BED) was delivered to a defined treatment volume by the ion beam; two 50 mm cubic volumes were evaluated, one centred at a depth of 125 mm and a second centred at a depth of 165 mm. […]

[6] = tested on: T98G (glioblastoma, in vitro); conditions: cited from earlier work
glioblastoma cell nuclei = conditions: cited from earlier work
[7] = in vivo; cited from earlier work; remark: listed apart in the source
[8] = rat, in vivo; cited from earlier work

In the case of `N[C@@H](Cc1ccc([10B](O)O)cc1)C(=O)O` [BPA, ^10B-4-borono-L-phenylalanine], the Cell proliferation ([1]; carbon beam 0 to 5 Gy) is reported as “substantially reduced”, the Cell proliferation ([1]; helium beam) is reported as “substantially reduced” and the radiosensitisation [1] is reported as “clear and substantial radiosensitisation”. For the same molecule, the CBE (brain tumour cells) was 3.6-3.8, the CBE (normal tissues) was 0.9-1.3 and the “CBE, tumour” value (liver tumours) was 9.94. For the same molecule, the “CBE, liver” value (liver) was 4.25, the “compound biological effectiveness CBE” value [2] was 3.8 and the “Concentration (PPM)” value ([3]; iv) was 30 ± 12 PPM. The “Concentration ratio (tumour to healthy tissue)” value ([3]; iv) was 5:1 ^, the “highest BPA concentration reported in the literature” value [3] was 125 ppm and the “tumour to healthy tissue concentration ratio” value [3] was 5:1-8:1. For the same molecule, the “concentration ratio (tumour:normal tissue)” value [4] was 2.8.

For `O=C([O-])CN1CCN(CC(=O)[O-])CCN(CC(=O)O)CCN(CC(=O)[O-])CC1.[Gd+3]` [Gd-DOTA], the “Concentration (ppM)” value (GBM (in vitro)) is given as 140 (1 h) ppM and the “accumulation within the cell nucleus” value (GBM (in vitro)) is given as “neither accumulates to significant concentration”.

In the case of `O=C([O-])CN(CCN(CC(=O)[O-])CC(=O)O)CCN(CC(=O)[O-])CC(=O)O.[Gd+3]` [Gd-DTPA], the “accumulation within the cell nucleus” value (GBM (in vitro); reported [40]) is listed as “neither accumulates to significant concentration”.

In the case of `O=C([O-])C(F)(F)F.O=C([O-])CN1CCN(CC(=O)[O-])CCN(Cc2ccc(C[P+](c3ccccc3)(c3ccccc3)c3ccccc3)cc2)CCN(CC(=O)[O-])CC1.[Gd+3]` [^157Gd-DOTA-TPP salt complex], the “compound biological effectiveness CBE” value [5] is reported as “≈ 40”, the Cell proliferation ([1]; carbon beam 0 to 5 Gy) is reported as “substantially reduced” and the Cell proliferation ([1]; helium beam) is reported as “substantially reduced”. For the same molecule, the radiosensitisation [1] was “clear and substantial radiosensitisation”.

For `[Gd]` [gadolinium], the “values previously published, concentration” value [6] is listed as “up to 3000 ppm”.

For `CC(=O)[O-].CC(=O)[O-].CCc1c(CC)c2cc3nc(cnc4cc(OCCOCCOCCOC)c(OCCOCCOCCOC)cc4ncc4nc(cc1[n-]2)C(CCCO)=C4C)C(C)=C3CCCO.O.[Gd+3]` [motexafin-gadolinium], the “prolonged retention of gadolinium in vitro” value (glioblastoma cell nuclei) is listed as “up to 2 months”, the “uptake in glioblastoma cell nuclei” value (glioblastoma cell nuclei) is listed as 90% and the “tumour to healthy tissue uptake ratio” value [7] is listed as 70:1.

In the case of boron, the “values previously published, tumour concentration” value [8] is given as “up to 231 ppm”.

In the case of “sodium mercaptoundecahydro-closo-dodecaborate [BSH]”, the “CBE, tumour” value (liver tumours) is given as 4.22, the “CBE, liver” value (liver) is given as 0.94 and the “tumour to healthy tissue concentration ratio” value [3] is given as 1.2-3.5. For the same molecule, the “concentration ratio (tumour:normal tissue)” value [4] was 0.3.
